# Reference: US8809341B2, “2,4-pyrimidinediamine compounds and uses as anti-proliferative agents” (Rigel Pharmaceuticals, Inc., priority 2003, dated 2014)
# Legend:
# A549 cells = assay: in vitro antiproliferation assay, A549 (lung); type: cell-based
# Outline: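 IC50 values came from standard antiproliferation testing in cultured tumour cells; the A549 and H1299 lines are of lung origin.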
# H1299 cells = assay: in vitro antiproliferation assay, H1299 (lung); type: cell-based
# Experimental: The IC50 values of various compounds against a various different tumor cell lines were determined using standard in vitro antiproliferation assays. The tumor cell lines tested were as follows: A549 (lung); H1299 (lung), ACHN (kidney/p53 wt), CAKI (renal cell carcinoma), NCI-H460 (lung); HCT116 (colon/p53w0; HELA (cervix/p53 wt), HUH7 (liver/p53 wt), HUVEC (primary endothelial), LNCAP (prostate), HT-29 (colon); MCF-7 (breast); MCF-7 (breast/ER positive), MDA MB435S (breast); MDA MB231 (breast/ER negative), DU145 (prostate); BxPC-3 (pancreatic); SKOV-3 (ovarian); HepG2 (hepatic), NDHF primary normal human dermal fibroblast), SKMEL28 (breast/p53mut), SKMEL5 (breast/p53 wt), U20S (bone) and PC3 (prostate). […] A blank indicates the specified compound was not tested against the specified cell line.
# [1] = Table 5, in vitro antiproliferation, A549 (lung) cells
# [2] = Table 5, in vitro antiproliferation, H1299 (lung) cells
# [3] = IC50 class against A549 (lung) tumor cells
# [4] = IC50 class against H1299 (lung) tumor cells
# [5] = Table 7, in vitro antiproliferation, A549 (lung) cells
# [6] = Table 7, in vitro antiproliferation, H1299 (lung) cells
Structure (SMILES),IC50 (A549 cells; [1]),IC50 (H1299 cells; [2]),IC50 (A549 cells; [3]),IC50 (H1299 cells; [4]),other results
Cc1cc(C)cc(Nc2ncc(F)c(Nc3ccc4c(c3)OCO4)n2)c1 [compound 544],> 20 µM,> 20 µM,–,–,–
COc1cc(Nc2ncc(F)c(N(C)c3ccc4c(c3)OCCO4)n2)cc(OC)c1 [compound 546],≤ 20 µM,> 20 µM,–,–,–
Cc1cc(C)cc(Nc2ncc(F)c(N(C)c3ccc4c(c3)OCCO4)n2)c1 [compound 547],≤ 20 µM,≤ 20 µM,–,–,–
CN(c1ccc2c(c1)OCCO2)c1nc(Nc2cccc(-c3ncco3)c2)ncc1F [compound 549],≤ 20 µM,≤ 20 µM,–,–,–
CC(=O)N1CCN(c2cccc(Nc3ncc(F)c(Nc4ccc5c(c4)OCCO5)n3)c2)CC1 [compound 550],≤ 20 µM,≤ 20 µM,–,–,–
CC(=O)N1CCN(c2cccc(Nc3ncc(F)c(Nc4ccc5c(c4)OC(F)(F)C(F)(F)O5)n3)c2)CC1 [compound 552],≤ 20 µM,≤ 20 µM,–,–,–
CC(=O)N1CCN(c2ccc(Nc3ncc(F)c(Nc4ccc5c(c4)OC(F)(F)C(F)(F)O5)n3)cc2)CC1 [compound 553],≤ 20 µM,≤ 20 µM,–,–,–
CNC(=O)c1ccc(Nc2ncc(F)c(Nc3ccc4c(c3)OCCO4)n2)cc1Cl [compound 554],≤ 20 µM,≤ 20 µM,–,–,–
COC(=O)c1cc(Nc2ncc(F)c(Nc3ccc4c(c3)OCCO4)n2)cc(-c2ncco2)c1 [compound 558],≤ 20 µM,≤ 20 µM,–,–,–
Fc1cnc(Nc2cc(-c3ncco3)cc(C(F)(F)F)c2)nc1Nc1ccc2c(c1)OCCO2 [compound 559],≤ 20 µM,≤ 20 µM,–,–,–
COc1cc(Nc2ncc(F)c(Nc3ccc4c(c3)OC(F)(F)O4)n2)cc(OC)c1OC [compound 560],≤ 20 µM,≤ 20 µM,–,–,–
COc1cc(Nc2ncc(F)c(Nc3ccc4c(c3)OC(F)(F)O4)n2)cc(OC)c1 [compound 561],≤ 20 µM,≤ 20 µM,–,–,–
Cc1cc(C)cc(Nc2ncc(F)c(Nc3ccc4c(c3)OC(F)(F)O4)n2)c1 [compound 562],≤ 20 µM,≤ 20 µM,–,–,–
Oc1c(Cl)cc(Nc2ncc(F)c(Nc3ccc4c(c3)OC(F)(F)O4)n2)cc1Cl [compound 563],≤ 20 µM,≤ 20 µM,–,–,–
Fc1cnc(Nc2cc(Cl)cc(Cl)c2)nc1Nc1ccc2c(c1)OC(F)(F)O2 [compound 564],≤ 20 µM,≤ 20 µM,–,–,–
Cc1cc(Nc2ncc(F)c(Nc3ccc4c(c3)OC(F)(F)O4)n2)cc(C)c1Cl [compound 565],> 20 µM,> 20 µM,–,–,–
Cc1cc(Nc2ncc(F)c(Nc3ccc4c(c3)OC(F)(F)O4)n2)cc(Cl)c1O [compound 566],≤ 20 µM,≤ 20 µM,–,–,–
COc1cc(Nc2ncc(F)c(Nc3ccc4c(c3)OC(F)(F)O4)n2)cc(C(F)(F)F)c1 [compound 567],≤ 20 µM,≤ 20 µM,–,–,–
Cc1cc(Nc2ncc(F)c(Nc3ccc4c(c3)OC(F)(F)O4)n2)cc(C(F)(F)F)c1 [compound 568],> 20 µM,≤ 20 µM,–,–,–
CNC(=O)COc1c(C)cc(Nc2ncc(F)c(Nc3ccc4c(c3)OCCO4)n2)cc1C [compound 569],≤ 20 µM,≤ 20 µM,–,–,–

Structure (SMILES),IC50 (A549 cells; [1]),IC50 (H1299 cells; [2]),IC50 (A549 cells; [3]),IC50 (H1299 cells; [4]),other results
CNC(=O)COc1c(C)cc(Nc2ncc(F)c(Nc3ccc4c(c3)OCO4)n2)cc1C [compound 570],≤ 20 µM,≤ 20 µM,–,–,–
Fc1cnc(Nc2cccc(-c3ncco3)c2)nc1Nc1ccc2c(c1)OC(F)(F)C(F)(F)O2 [compound 571],≤ 20 µM,≤ 20 µM,–,–,–
CN(c1ccc2c(c1)OC(F)(F)C(F)(F)O2)c1nc(Nc2cccc(-c3ncco3)c2)ncc1F [compound 572],≤ 20 µM,≤ 20 µM,–,–,–
CNC(=O)COc1c(C)cc(Nc2ncc(F)c(N(C)c3ccc4c(c3)OCCO4)n2)cc1C [compound 573],≤ 20 µM,≤ 20 µM,–,–,–
CNC(=O)COc1c(C)cc(Nc2ncc(F)c(N(C)c3ccc4c(c3)OC(F)(F)C(F)(F)O4)n2)cc1C [compound 574],≤ 20 µM,≤ 20 µM,–,–,–
CNC(=O)COc1c(C)cc(Nc2ncc(F)c(Nc3ccc4c(c3)OC(F)(F)C(F)(F)O4)n2)cc1C [compound 575],≤ 20 µM,≤ 20 µM,–,–,–
COc1cc(Nc2ncc(F)c(Nc3ccc4c(c3)NC(C)(C)CO4)n2)cc(OC)c1 [compound 588],–,–,≤ 20 µM,≤ 20 µM,–
Fc1cnc(Nc2cccc(-c3ncco3)c2)nc1Nc1ccc2c(c1)NCCO2 [compound 589],–,–,≤ 20 µM,≤ 20 µM,–
CC1(C)COc2ccc(Nc3nc(Nc4cccc(-c5ncco5)c4)ncc3F)cc2N1 [compound 590],–,–,≤ 20 µM,≤ 20 µM,–
Fc1cnc(Nc2cccc(-c3cnco3)c2)nc1Nc1ccc2c(c1)NCCO2 [compound 591],–,–,≤ 20 µM,≤ 20 µM,–
CC1(C)COc2ccc(Nc3nc(Nc4cccc(-c5cnco5)c4)ncc3F)cc2N1 [compound 592],–,–,> 20 µM,> 20 µM,–
COc1c(C)cc(Nc2ncc(F)c(Nc3ccc4c(c3)NCC(C)(C)O4)n2)cc1Cl [compound 597],–,–,≤ 20 µM,≤ 20 µM,–
CC(=O)N1CCN(c2ccc(Nc3ncc(F)c(Nc4ccc5c(n4)NCCO5)n3)cc2)CC1 [compound 603],–,–,≤ 20 µM,≤ 20 µM,–
CCOC(=O)N1CCN(c2ccc(Nc3ncc(F)c(Nc4ccc5c(n4)NCCO5)n3)cc2)CC1 [compound 604],–,–,> 20 µM,≤ 20 µM,–
Fc1cnc(Nc2cccc(N3CCOCC3)c2)nc1Nc1ccc2c(n1)NCCO2 [compound 605],–,–,≤ 20 µM,≤ 20 µM,–
CC(=O)N1CCN(c2cccc(Nc3ncc(F)c(Nc4ccc5c(n4)NCCO5)n3)c2)CC1 [compound 606],–,–,≤ 20 µM,≤ 20 µM,–
CCOC(=O)N1CCN(c2cccc(Nc3ncc(F)c(Nc4ccc5c(n4)NCCO5)n3)c2)CC1 [compound 607],–,–,≤ 20 µM,≤ 20 µM,–
CN1CCN(c2ccc(Nc3ncc(F)c(Nc4ccc5c(n4)NCCO5)n3)cc2)CC1 [compound 608],–,–,≤ 20 µM,≤ 20 µM,–
CN1CCN(c2cccc(Nc3ncc(F)c(Nc4ccc5c(n4)NCCO5)n3)c2)CC1 [compound 609],–,–,≤ 20 µM,≤ 20 µM,–
Fc1cnc(Nc2cccc(-c3ncco3)c2)nc1Nc1ccc2c(n1)NCCO2 [compound 610],–,–,≤ 20 µM,≤ 20 µM,–

Structure (SMILES),IC50 (A549 cells; [1]),IC50 (H1299 cells; [2]),IC50 (A549 cells; [3]),IC50 (H1299 cells; [4]),other results
COc1cc(Nc2ncc(F)c(Nc3ccc4c(n3)NCCO4)n2)cc(OC)c1OC [compound 611],–,–,≤ 20 µM,≤ 20 µM,–
COc1ccc(Nc2ncc(F)c(Nc3ccc4c(n3)NCCO4)n2)cc1Cl [compound 612],–,–,> 20 µM,> 20 µM,–
CN1CCN(c2ccc(Nc3ncc(F)c(Nc4ccc5c(n4)NCCO5)n3)cc2Cl)CC1 [compound 615],–,–,≤ 20 µM,≤ 20 µM,–
Cc1cc(Nc2ncc(F)c(Nc3ccc4c(n3)NCCO4)n2)ccc1N1CCN(C)CC1 [compound 616],–,–,≤ 20 µM,≤ 20 µM,–
CNC(=O)c1cc2cccc(Nc3ncc(F)c(Nc4ccc5c(c4)OC(F)(F)C(F)(F)O5)n3)c2[nH]1 [compound 653],–,–,–,–,IC50 (A549 cells; [5]): ≤ 20 µM; IC50 (H1299 cells; [6]): ≤ 20 µM
CNC(=O)c1cc2cccc(Nc3ncc(F)c(Nc4ccc5c(c4)OCO5)n3)c2[nH]1 [compound 655],–,–,–,–,IC50 (A549 cells; [5]): ≤ 20 µM; IC50 (H1299 cells; [6]): ≤ 20 µM
COC(=O)c1cc2cc(Nc3ncc(F)c(Nc4cc(OC)cc(OC)c4)n3)ccc2o1 [compound 656],–,–,–,–,IC50 (A549 cells; [5]): > 20 µM; IC50 (H1299 cells; [6]): > 20 µM
COc1cc(Nc2nc(Nc3ccc4oc(C(=O)O)cc4c3)ncc2F)cc(OC)c1 [compound 657],–,–,–,–,IC50 (A549 cells; [5]): > 20 µM; IC50 (H1299 cells; [6]): > 20 µM
COc1cc(Nc2nc(Nc3ccc4[nH]c(C(C)=O)cc4c3)ncc2F)cc(OC)c1 [compound 658],–,–,–,–,IC50 (A549 cells; [5]): > 20 µM; IC50 (H1299 cells; [6]): ≤ 20 µM
COC(=O)c1cc2cccc(Nc3ncc(F)c(N(C)c4ccc5c(c4)OCCO5)n3)c2o1 [compound 661],–,–,–,–,IC50 (A549 cells; [5]): > 20 µM; IC50 (H1299 cells; [6]): > 20 µM
COC(=O)c1cc2cc(Nc3ncc(F)c(N(C)c4cc(OC)cc(OC)c4)n3)ccc2o1 [compound 662],–,–,–,–,IC50 (A549 cells; [5]): > 20 µM; IC50 (H1299 cells; [6]): ≤ 20 µM
CNC(=O)c1cc2cccc(Nc3ncc(F)c(N(C)c4cc(OC)cc(OC)c4)n3)c2[nH]1 [compound 663],–,–,–,–,IC50 (A549 cells; [5]): ≤ 20 µM; IC50 (H1299 cells; [6]): ≤ 20 µM
CCOC(=O)c1cc2cccc(Nc3ncc(F)c(Nc4ccc(OC)c(OC)c4)n3)c2[nH]1 [compound 664],–,–,–,–,IC50 (A549 cells; [5]): ≤ 20 µM; IC50 (H1299 cells; [6]): ≤ 20 µM
CNC(=O)c1cc2cccc(Nc3ncc(F)c(Nc4ccc(OC)c(OC)c4)n3)c2[nH]1 [compound 665],–,–,–,–,IC50 (A549 cells; [5]): ≤ 20 µM; IC50 (H1299 cells; [6]): ≤ 20 µM
CCOC(=O)c1cc2cccc(Nc3ncc(F)c(N(C)c4ccc(OC)c(OC)c4)n3)c2[nH]1 [compound 666],–,–,–,–,IC50 (A549 cells; [5]): ≤ 20 µM; IC50 (H1299 cells; [6]): ≤ 20 µM
CNC(=O)c1cc2cccc(Nc3ncc(F)c(Nc4cc(C)cc(C)c4)n3)c2[nH]1 [compound 668],–,–,–,–,IC50 (A549 cells; [5]): > 20 µM; IC50 (H1299 cells; [6]): ≤ 20 µM
CNC(=O)c1cc2cccc(Nc3ncc(F)c(Nc4cc(OC)cc(C(F)(F)F)c4)n3)c2[nH]1 [compound 669],–,–,–,–,IC50 (A549 cells; [5]): ≤ 20 µM; IC50 (H1299 cells; [6]): ≤ 20 µM
CNC(=O)c1cc2cccc(Nc3ncc(F)c(Nc4ccc5c(c4)OC(F)(F)O5)n3)c2[nH]1 [compound 670],–,–,–,–,IC50 (A549 cells; [5]): > 20 µM; IC50 (H1299 cells; [6]): > 20 µM
COC(=O)c1cc2cc(Nc3ncc(F)c(N(C)c4ccc(OC)c(Cl)c4)n3)ccc2o1 [compound 671],–,–,–,–,IC50 (A549 cells; [5]): > 20 µM; IC50 (H1299 cells; [6]): > 20 µM
COC(=O)c1cc2cc(Nc3ncc(F)c(N(C)c4cc(C)c(Cl)c(C)c4)n3)ccc2o1 [compound 672],–,–,–,–,IC50 (A549 cells; [5]): > 20 µM; IC50 (H1299 cells; [6]): > 20 µM
